{
  "source": "patent US11999720B2",
  "about": "“Pyrazolylacylpyrazoline compounds and method for treating pain” (THE TRUSTEES OF INDIANA UNIVERSITY, priority 2018, dated 2024)",
  "key": {"CaVα1CaVβ3 interaction": {"target": "T1, CaVα1CaVβ3 interaction (Rattus norvegicus, UniProt P54287)", "T1 construct": "made in house; host or cells: E. coli BL21(DE3)", "T1 sequence (P54287 whole entry)": "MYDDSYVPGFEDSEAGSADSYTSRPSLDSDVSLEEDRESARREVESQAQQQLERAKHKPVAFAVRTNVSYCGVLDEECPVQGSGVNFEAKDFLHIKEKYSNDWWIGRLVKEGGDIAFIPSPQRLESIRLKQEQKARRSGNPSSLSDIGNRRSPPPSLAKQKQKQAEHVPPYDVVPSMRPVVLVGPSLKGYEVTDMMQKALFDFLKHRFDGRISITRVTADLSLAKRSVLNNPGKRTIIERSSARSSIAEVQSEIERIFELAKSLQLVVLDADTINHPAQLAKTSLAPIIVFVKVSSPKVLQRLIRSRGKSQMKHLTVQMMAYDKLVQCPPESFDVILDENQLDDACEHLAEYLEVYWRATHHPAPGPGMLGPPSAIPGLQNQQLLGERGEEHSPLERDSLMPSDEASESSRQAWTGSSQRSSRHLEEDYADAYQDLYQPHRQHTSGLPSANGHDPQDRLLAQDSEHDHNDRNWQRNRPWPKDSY", "assay": "fluorescence polarization assay, inhibition constant", "type": "binding", "settings": "for Ki: fluorescence polarization assay", "protocol": "The plasmid of pET28a-CaV2.2β3 subunit was transformed into competent E. Coli BL21(DE3) strain. Culture was grown in LB medium at 37° C. to an OD600 of approximately 0.6 and then induced with 0.5 mM IPTG at 16° C. for 16 h. Cells were collected by centrifugation and lysed by microfluidizer in lysis buffer (phosphate buffer, pH 7.6, 2 mM DTT). The His-CaVβ3 protein was purified at 4° C. using Ni-IMAC chromatography (His-Trap HP, GE Healthcare) and eluted with 500 mM imidazole in lysis buffer with a gradient method. After the fractions consisted of His-CaVβ3 was combined and concentrated, the protein was further purified using size exclusion chromatography (Superdex 200 pg, GE Healthcare) in PBS with 2 mM DTT.\nCompound 6 forms a salt bridge interaction with Arg-307 through a benzoic acid moiety. […] Arg-307 was mutated to alanine."}, "[1]": {"test_system": "T2, CaV2.2 channels in HEK-CaV2.2 cells (Rattus norvegicus)", "T2 construct": "expressed in transfected cells", "T2 sequence (P54287 whole entry)": "as above", "assay": "whole cell patch-clamp, CaV2.2 currents in HEK-CaV2.2 cells", "type": "cell-based", "protocol": "The G-V curves are shown.\nHEK-CaV2.2 cells were pretreated with various concentrations of compound 14 for 48 hours. CaV2.2 currents were acquired during 20-ms depolarizing pulses, and the current densities were calculated as a ratio of the peak current amplitude and each cell capacitance (0.1 μM, n=6; 1 μM, n=7; 10 μM, n=8; 50 μM, n=12). The line is the fit of the data to the four-parameter logistic function.\nEK-CaV2.2 cells were pretreated with the indicated compounds for 48 hours. *** corresponds to […].\nFIGS. 8 and 9 show the effects of 2 and 14 on the voltage dependence of activation of CaV2.2 channels in HEK-CaV2.2 cells pretreated with the vehicle or the indicated compounds for 48 hours. […] The gray vertical lines are the error bars (S.E.M.).\nFIGS. 10 and 11 show acute effects of DMSO and 14 on the voltage dependence of activation of CaV2.2 channels in HEK-CaV2.2 cells. […] The gray vertical lines are the error bars (S.E.M.). “ns”—stands for not significant.\nThe whole cell patch-clamp technique was used to record CaV2.2 currents in HEK-CaV2.2 cells and rat DRG neurons. HEK293 cells that stably expressed rat N-type CaV2.2α1B, rat CaVβ3, and rat […] were utilized. Cells were grown in Dulbecco's modified Eagle's medium (DMEM) supplemented with 10% FBS, 50 units penicillin, 50 μg/ml streptomycin, 5 μg/ml blasticidin, 5 μg/ml hydromycin and 25 μg/ml zeozin at 37° C. in a humidified atmosphere of 95% air and 5% CO2. For patch clamp experiments, HEK-CaV2.2 cells were plated on glass coverslips and were cultured for 24-48 h. All animal procedures were performed in accordance to the NIH guide and were approved by the Indiana University School of Medicine Institutional Animal Care and Use Committee. Young adult Sprague Dawley rats were anesthetized (3% isoflurane) and then decapitated. The spinal column was removed, cut open, and dorsal root ganglia were harvested from the Lumbar L4-L6 vertebral levels. The ganglia were incubated in DMEM containing collagenase (1 mg/ml, Worthington: LS04194) and protease (1 mg/ml, Worthington: LS02104) for 30-60 minutes, and DRG neurons were dissociated by triturating in DMEM supplemented with 10% FBS. The isolated DRG neurons were plated on glass coverslips coated with growth factor reduced Matrigel (Thermo Fisher Scientific, Waltham, MA) and were cultured in Eagle's minimum essential medium (Invitrogen, CA) supplemented with 0.2% BSA and 20 ng/ml NGF-2.5S (BD Biosciences, Bedford, MA) at 37° C. in a water-jacketed 5% CO2 incubator overnight for the patch-clamp experiments."}, "[2]": {"assay": "pharmacokinetics, plasma concentrations by LC-MS/MS after IV and PO administration", "type": "in vivo, Kunming mice", "settings": "Kunming, mouse; for half-life: read-out: elimination half-life (converted); for Cmax: read-out: Cmax peak plasma concentration", "protocol": "Plasma concentrations at various time points were determined using liquid chromatography tandem mass spectroscopy (LC-MS/MS). For intravenous (IV) administration, compound 14 was formulated as a solution at a final dose of 1 mg/kg.\nFor oral gavage (PO) administration, compound 14 was formulated as a solution at a final dose of 10 mg/kg. Plasma concentrations at various time points were determined using LC-MS/MS.\nPK profiles of compound 14 after intravenous and oral administration was performed in Kunming mice. Plasma concentrations were determined by liquid chromatography tandem mass spectroscopy. Summary of PK properties and plasma concentration measured 1 hour after intravenous or oral administration of 1 or 10 mg/kg compound 14."}, "[3]": {"test_system": "tibial nerve injury (TNI) model of neuropathic pain", "assay": "tibial nerve injury (TNI) model of neuropathic pain, von Frey withdrawal threshold", "type": "in vivo, rat", "protocol": "Pathogen-free, adult, female Sprague Dawley (weight at testing 150-200 g; Harlan-Sprague-Dawley, Indianapolis, IN) were housed in a climate-controlled room on a 12-hour light/dark cycle and were allowed to have food and water ad libitum. All procedures were approved by the Indiana University Animal Care and Use Committee and conformed to the guidelines of the National Institutes of Health (publication no. 80-23, 1966) for the use of laboratory animals. All behavioral experiments were conducted by experimenters blinded to the treatment conditions and compound identity. The experiments were replicated a minimum of 2 times with independent cohorts of animals.\nFor in vivo studies, the inventive compounds were freshly prepared saline (0.9%) on the day of the experiment. Morphine sulfate salt (Sigma-Aldrich, St. Louis, MO) was freshly prepared on the day of the experiment in saline. […]\nThe inventive compounds were assessed with the tibial nerve injury (TNI) model of neuropathic pain 28 days after surgery. Using isoflurane anesthesia (4% induction and 2% maintenance), the right sciatic nerve was isolated under aseptic surgical conditions by blunt dissection of the femoral biceps muscle and the tibial nerve was tightly ligated with 5-0 silk and transected distal to the ligation. Additional 2 to 3 mm of distal nerve stump was removed to prevent reinnervation by the proximal nerve. The overlying muscle and skin was then sutured in 2 separate layers. Sham-injured animals were subjected to all preceding procedures with the exception of ligation and transection. All animals were returned to the housing facility and allowed to survive for 28 d. Mechanical stimuli were applied with 7 filaments, each differing in the bending force delivered (10, 20, 40, 60, 80, 100, and 120 mN), and fitted with a flat tip and fixed diameter of 0.2 mm. The filaments were tested in the order of ascending force, with each filament delivered for 1 second. Withdrawal threshold was determined by sequentially increasing and analyzed with Hill equation was fitted to the function (Origin version 6.0; Microcal Software) relating the percentage of indentations eliciting a withdrawal to the force of indentation."}},
  "note": "“Also recorded” adds a separate entry of the source. Where two headings read alike, the source gives them in different places.",
  "data": [
    {"compound": "COc1ccc(C2=NN(C(=O)c3cccc(-c4nnn[nH]4)c3)C(c3cn(-c4ccccc4)nc3-c3ccc(C)cc3)C2)cc1", "note": "(centres unmarked) [Compound 14, (3-(1H-tetrazol-5-yl)phenyl)(5-(4-methoxyphenyl)-1′-phenyl-3′-(p-tolyl)-3,4-dihydro-1′H,2H-[3,4′-bipyrazol]-2-yl)methanone]", "values": [
      {"measurement": "Ki", "setting": "CaVα1CaVβ3 interaction", "result": "2 ± 0.2", "unit": "µM"},
      {"measurement": "steady-state inactivation V0.5, inact", "setting": "[1]; 50 μM, pretreated 48 hours", "result": "−52.9±1.3", "unit": "mV"},
      {"measurement": "IC50", "setting": "[1]; pretreated 48 hours, current densities, four-parameter logistic fit, read-out: apparent IC50 for inhibition of CaV2.2 currents", "result": 31, "unit": "µM"},
      {"measurement": "mean half-activation potential V0.5, act", "setting": "[1]; pretreated 48 hours, DMSO 8.7±1.1", "result": "16.5±1.1", "unit": "mV"},
      {"measurement": "half-life", "setting": "[2]; IV, 1 mg/kg", "result": 17.4, "unit": "min"},
      {"measurement": "AUC(0-t)", "setting": "[2]; iv, 1 mg/kg", "result": 58, "unit": "ng·h/mL"},
      {"measurement": "Tmax", "setting": "[2]; iv, 1 mg/kg", "result": 4.98, "unit": "min"},
      {"measurement": "Cmax", "setting": "[2]; iv, 1 mg/kg", "result": 181, "unit": "ng/mL"},
      {"measurement": "AUC(0-t)", "setting": "[2]; oral gavage (PO), 10 mg/kg", "result": 636, "unit": "ng·h/mL"},
      {"measurement": "Tmax", "setting": "[2]; oral gavage (PO), 10 mg/kg", "result": 60, "unit": "min"},
      {"measurement": "Cmax", "setting": "[2]; oral gavage (PO), 10 mg/kg", "result": 165, "unit": "ng/mL"},
      {"measurement": "half-life", "setting": "[2]; oral gavage (PO), 10 mg/kg", "result": 119, "unit": "min"},
      {"measurement": "reversal of mechanical hypersensitivity (PWT)", "setting": "[3]; 0.1 mg/kg single bolus, 1 and 24 h post-dosing, 4 weeks after TNI", "result": "significantly reversed mechanical hypersensitivity at both 1 and 24 h post-dosing; also recorded: significantly increased PWTs at both 1 and 24 hours post-injection"}
    ]},
    {"compound": "COc1ccc(C2=NN(C(=O)c3cccc(C(=O)O)c3)C(c3cn(-c4ccc(OC)cc4)nc3-c3ccc(C)cc3)C2)cc1", "note": "(centres unmarked) [Compound 10, 3-(1′,5-bis(4-methoxyphenyl)-3′-(p-tolyl)-3,4-dihydro-1′H,2H-[3,4′-bipyrazole]-2-carbonyl)benzoic acid]", "values": [
      {"measurement": "Ki", "setting": "CaVα1CaVβ3 interaction", "result": "3.7 ± 0.2", "unit": "µM"}
    ]},
    {"compound": "COc1ccc(C2=NN(C(=O)c3cccc(C(=O)O)c3)C(c3cn(-c4ccccc4)nc3-c3ccc(-c4ncc[nH]4)cc3)C2)cc1", "note": "(centres unmarked) [Compound 15, 3-(3′-(4-(1H-imidazol-2-yl)phenyl)-5-(4-methoxyphenyl)-1′-phenyl-3,4-dihydro-1′H,2H-[3,4′-bipyrazole]-2-carbonyl)benzoic acid]", "values": [
      {"measurement": "half-activation voltage V0.5, act after acute treatment", "setting": "[1]; 50 μM, 5 min incubation, before 6.4±1.9", "result": "11.4±1.7", "unit": "mV"},
      {"measurement": "density of CaV2.2 currents", "setting": "[1]; 50 μM, pretreated 48 hours, depolarizing pulses to 0 mV from holding potential −80 mV, DMSO −74.8±7.0", "result": "−11.1±2.4", "unit": "pA/pF"}
    ]},
    {"compound": "COc1ccc(C2=NN(c3cccc(C(=O)O)c3)C(c3cn(-c4ccccc4)nc3-c3ccc(C)cc3)C2)cc1", "note": "(centres unmarked) [Compound 11, 3-(5-(4-methoxyphenyl)-1′-phenyl-3′-(p-tolyl)-3,4-dihydro-1′H,2H-[3,4′-bipyrazol]-2-yl)benzoic acid]", "values": [
      {"measurement": "Ki", "setting": "CaVα1CaVβ3 interaction", "result": "3.9 ± 0.9", "unit": "µM"}
    ]},
    {"compound": "COC(=O)c1cccc(C(=O)N2N=C(c3ccc(OC)cc3)CC2c2cn(-c3ccccc3)nc2-c2ccc(C)cc2)c1", "note": "(centres unmarked) [Compound 7, methyl 3-(5-(4-methoxyphenyl)-1′-phenyl-3′-(p-tolyl)-3,4-dihydro-1′H,2H-[3,4′-bipyrazole]-2-carbonyl)benzoate]", "values": [
      {"measurement": "inhibition of the CaVα1CaVβ3 interaction", "setting": "CaVα1CaVβ3 interaction; removal of the charge of the benzoic acid moiety", "result": "complete loss of inhibition"}
    ]},
    {"compound": "CN1CC[C@]23c4c5ccc(O)c4O[C@H]2[C@@H](O)C=C[C@H]3[C@H]1C5.O=S(=O)(O)O", "note": "[morphine, Morphine sulfate salt, reference compound]", "values": [
      {"measurement": "withdrawal threshold to von Frey stimulation", "setting": "[3]; 5 mg/kg systemic, 28 days after TNI", "result": "32±2.6", "unit": "mN"}
    ]},
    {"compound": "COc1ccc(C2=NN(C(=O)c3cccc(C(=O)O)c3)C(c3cn(-c4ccccc4)nc3-c3ccc(Cl)cc3)C2)cc1", "note": "(centres unmarked) [Compound 8, 3-(3′-(4-chlorophenyl)-5-(4-methoxyphenyl)-1′-phenyl-3,4-dihydro-1′H,2H-[3,4′-bipyrazole]-2-carbonyl)benzoic acid]", "values": [
      {"measurement": "Ki", "setting": "CaVα1CaVβ3 interaction", "result": "1.2 ± 0.1", "unit": "µM"}
    ]},
    {"compound": "COc1ccc(C2=NN(C(=O)c3cccc(C(=O)O)c3)C(c3cn(-c4cccnc4)nc3-c3ccc(C)cc3)C2)cc1", "note": "(centres unmarked) [Compound 12, 3-(5-(4-methoxyphenyl)-1′-(pyridin-3-yl)-3′-(p-tolyl)-3,4-dihydro-1′H,2H-[3,4′-bipyrazole]-2-carbonyl)benzoic acid]", "values": [
      {"measurement": "Ki", "setting": "CaVα1CaVβ3 interaction", "result": "5 ± 1.9", "unit": "µM"}
    ]},
    {"compound": "COc1ccc(C2=NN(C(=O)CCC(=O)O)C(c3cn(-c4ccccc4)nc3-c3ccc(C)cc3)C2)cc1", "note": "(centres unmarked) [Compound 1]", "values": [
      {"measurement": "Ki", "setting": "CaVα1CaVβ3 interaction", "result": "6.7 ± 0.3", "unit": "µM"}
    ]},
    {"compound": "Cc1ccc(-c2nn(-c3ccccc3)cc2C2CC(c3ccc(-c4ccccn4)cc3)=NN2C(=O)CCC(=O)O)cc1", "note": "(centres unmarked) [Compound 4, 4-oxo-4-(1′-phenyl-5-(4-(pyridin-2-yl)phenyl)-3′-(p-tolyl)-3,4-dihydro-1′H,2H-[3,4′-bipyrazol]-2-yl)butanoic acid]", "values": [
      {"measurement": "Ki", "setting": "CaVα1CaVβ3 interaction", "result": "2.2 ± 0.3", "unit": "µM"}
    ]}
  ]
}
